Experiment [1] concerns the target T1, C-X-C chemokine receptor type 2 (Homo sapiens, UniProt P25025).
T1 sequence (P25025 whole entry): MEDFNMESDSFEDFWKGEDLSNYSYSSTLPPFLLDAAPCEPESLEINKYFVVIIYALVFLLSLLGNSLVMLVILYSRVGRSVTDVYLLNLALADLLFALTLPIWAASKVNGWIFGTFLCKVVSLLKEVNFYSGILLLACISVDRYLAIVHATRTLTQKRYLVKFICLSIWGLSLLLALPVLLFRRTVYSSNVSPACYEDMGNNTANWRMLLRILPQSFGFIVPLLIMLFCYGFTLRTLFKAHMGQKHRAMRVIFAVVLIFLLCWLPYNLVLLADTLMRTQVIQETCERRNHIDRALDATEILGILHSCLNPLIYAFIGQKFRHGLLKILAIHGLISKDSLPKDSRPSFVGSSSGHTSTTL
In words: Antagonist activity at CXCR2 (unknown origin) expressed in U2OS cells cotransfected with beta-arrestin/TEV protease fusion protein and beta-lactamase assessed as inhibition of CXCL8-induced beta arrestin2 recruitment preincubated for 30 mins followed by CXCL8 stimulation and measured after 5 hrs by FRET based fluorescence/Tango assay. Format: cell-based.

The target of experiment [2] is C-X-C chemokine receptor type 4 (Homo sapiens, UniProt P61073). In words: Antagonist activity at CXCR4 (unknown origin) expressed in U2OS cells cotransfected with beta-arrestin/TEV protease fusion protein and beta-lactamase assessed as inhibition of SDF1-alpha-induced beta arrestin2 recruitment preincubated for 30 mins followed by SDF1-alpha stimulation and measured after 5 hrs by FRET based fluorescence/Tango assay. Background: Activated receptors often draw arrestin, which recruitment assays turn into a signal.

As a reminder, the IC50 is the midpoint of a concentration-inhibition curve.

Sequence of C-X-C chemokine receptor type 4 (P61073 whole entry, the tested form may be a part): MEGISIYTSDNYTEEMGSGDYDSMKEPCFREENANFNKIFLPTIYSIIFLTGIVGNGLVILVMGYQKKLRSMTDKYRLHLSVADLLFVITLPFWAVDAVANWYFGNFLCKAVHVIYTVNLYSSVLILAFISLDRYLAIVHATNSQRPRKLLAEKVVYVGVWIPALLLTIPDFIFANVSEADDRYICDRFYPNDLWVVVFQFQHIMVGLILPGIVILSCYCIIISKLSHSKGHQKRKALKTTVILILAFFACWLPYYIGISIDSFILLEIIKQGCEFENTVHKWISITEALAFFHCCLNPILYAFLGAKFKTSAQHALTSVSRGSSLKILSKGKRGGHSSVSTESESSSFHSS

As for `CC(C)(C)OC(=O)c1c(NC(=S)Nc2ccccc2)sc2c1CCCO2`, the IC50 is 4.1 µM in experiment [1] and above 10 µM in experiment [2].

Take `COc1cccc(NC(=S)Nc2sc3c(c2C(=O)OC(C)(C)C)C(C)CCC3)c1` (stereo unspecified): the values for the IC50 in experiment [1] and in experiment [2] were 2.7 µM and above 10 µM, respectively.

On to `CC1CCCc2sc(NC(=S)Nc3ccc4c(c3)OC(F)(F)O4)c(C(=O)OC(C)(C)C)c21` (stereo unspecified), for which the half-maximal inhibitory concentration (IC50) in experiment [1] and in experiment [2] was above 10 µM each time.

Turning to `CCOC(=O)c1c(NC(=S)Nc2ccc(N)cc2)sc2c1C(C)CCC2` (stereo unspecified), the values for the IC50 in experiment [1] and in experiment [2] were above 30 µM and above 10 µM, respectively.

For the compound `CC1CCCc2sc(NC(=S)Nc3ccccc3)c(C(=O)Nc3ccccc3)c21` (stereo unspecified), the 50% inhibitory concentration (IC50) is 2.7 µM in experiment [1] and above 10 µM in experiment [2].

As for `CC1CCCc2sc(NC(=S)Nc3ccccc3)c(C(=O)OC(C)(C)C)c21` (stereo unspecified), the half-maximal inhibitory concentration (IC50) in experiment [1] was found to be 2.5 µM; in experiment [2], 11.9 µM.

Regarding `CCOC(=O)c1c(NC(=S)Nc2ccc(C(C)(C)C)cc2)sc2c1C(C)CCC2` (stereo unspecified), the IC50 in experiment [1] is 7 µM; in experiment [2], above 10 µM.

Consider `CCOC(=O)c1c(NC(=S)Nc2ccccc2)sc2c1C(C)CCC2` (stereo unspecified), for which the half-inhibitory concentration (IC50) in experiment [1] was 6.4 µM; in experiment [2], above 10 µM.

For `COc1ccc(NC(=S)Nc2sc3c(c2C(=O)OC(C)(C)C)C(C)CCC3)cc1OC` (stereo unspecified), the IC50 is 5.7 µM in experiment [1] and above 10 µM in experiment [2].

Regarding `CC(C)(C)OC(=O)c1c(NC(=S)Nc2ccccc2)sc2c1COC(C)(C)C2`, the IC50 in experiment [1] and in experiment [2] was above 10 µM each time.

On to `CC(C)(C)OC(=O)c1c(NC(=S)Nc2ccccc2)sc2c1CCNC2`, for which the IC50 in experiment [1] is 8.7 µM; in experiment [2], above 10 µM.

For the compound `CC1CCCc2sc(NC(=S)Nc3ccc(OC(C)(C)C)cc3)c(C(=O)OC(C)(C)C)c21` (stereo unspecified), the concentration for half-maximal inhibition (IC50) in experiment [1] is 6.8 µM; in experiment [2], above 10 µM.

On to `CCOC(=O)c1c(NC(=S)Nc2cnccn2)sc2c1C(C)CCC2` (stereo unspecified), for which the IC50 in experiment [1] and in experiment [2] was above 10 µM throughout.

`CCOC(=O)c1c(NC(=S)Nc2ccc3c(c2)OC(F)(F)O3)sc2c1C(C)CCC2` (stereo unspecified): the concentration for half-maximal inhibition (IC50) is 1.9 µM in experiment [1] and 26.7 µM in experiment [2].

For the compound `CC(C)(C)OC(=O)c1c(NC(=S)Nc2ccccc2)sc2c1CCN(Cc1ccccc1)C2`, the concentration for half-maximal inhibition (IC50) in experiment [1] and in experiment [2] was above 10 µM each time.

Turning to `CCOC(=O)c1c(NC(=S)Nc2ccc(OC)cc2)sc2c1C(C)CCC2` (stereo unspecified), the 50% inhibitory concentration (IC50) in experiment [1] was 4.4 µM; in experiment [2], 11.5 µM.

As to `CCOC(=O)c1c(NC(=S)Nc2ccc(F)cc2)sc2c1C(C)CCC2` (stereo unspecified), the IC50 in experiment [1] was found to be 2.1 µM; in experiment [2], 11.7 µM.

Consider `CCOC(=O)c1c(NC(=S)Nc2ccc(C(F)(F)F)cc2)sc2c1C(C)CCC2` (stereo unspecified), for which the figures for the IC50 in experiment [1] and in experiment [2] were 2 µM and 14.6 µM, respectively.

Regarding `C[C@H](NC(=S)Nc1sc2c(c1C(=O)OC(C)(C)C)CCOC2)c1ccccc1`, the IC50 is 2.4 µM in experiment [1] and above 30 µM in experiment [2].

As for `CC1CCCc2sc(NC(=S)Nc3ccccc3)c(C(=O)O)c21` (stereo unspecified), the IC50 was 6.7 µM in experiment [1] and above 10 µM in experiment [2].

As to `CC(C)(C)OC(=O)c1c(NC(=S)Nc2ccccc2)sc2c1CCOC2`, the IC50 was 2.3 µM in experiment [1] and above 30 µM in experiment [2].

With `CN1CCc2c(sc(NC(=S)Nc3ccccc3)c2C(=O)OC(C)(C)C)C1`, the IC50 in experiment [1] and in experiment [2] was above 10 µM each time.

As for `CCOC(=O)c1c(NC(=S)Nc2ccccc2O)sc2c1C(C)CCC2` (stereo unspecified), the IC50 in experiment [1] was above 30 µM; in experiment [2], above 10 µM.

Turning to `CCOC(=O)c1c(NC(=S)NCc2ccccc2)sc2c1C(C)CCC2` (stereo unspecified), the values for the IC50 in experiment [1] and in experiment [2] were 6.7 µM and above 20 µM, respectively.

Consider `CCOC(=O)NC(=S)Nc1sc2c(c1C(=O)OCC)C(C)CCC2` (stereo unspecified), for which the half-maximal inhibitory concentration (IC50) in experiment [1] was 8.7 µM; in experiment [2], above 10 µM.

Take `CCOC(=O)c1c(NC(=S)Nc2ccc(OC(F)(F)F)cc2)sc2c1C(C)CCC2` (stereo unspecified): the IC50 in experiment [1] is 2.2 µM; in experiment [2] it was 12.7 µM.

With `CC(C)OC(=O)c1c(NC(=S)Nc2ccccc2)sc2c1C(C)CCC2` (stereo unspecified), the IC50 in experiment [1] turned out to be 2.7 µM; in experiment [2], 9.3 µM.

Consider `COc1ccc(NC(=S)Nc2sc3c(c2C(=O)OC(C)(C)C)CCOC3)cc1OC`, for which the concentration for half-maximal inhibition (IC50) in experiment [1] is 3.4 µM; in experiment [2], above 10 µM.

Take `CNC(=O)c1c(NC(=S)Nc2ccccc2)sc2c1C(C)CCC2` (stereo unspecified): the half-maximal inhibitory concentration (IC50) in experiment [1] and in experiment [2] was above 10 µM throughout.

With `CC1CCCc2sc(NC(=S)Nc3ccc(N4CCN(C)CC4)cc3)c(C(=O)OC(C)(C)C)c21` (stereo unspecified), the concentration for half-maximal inhibition (IC50) in experiment [1] and in experiment [2] was above 10 µM each time.

`CC(C)(C)OC(=O)c1c(NC(=S)Nc2ccccc2)sc2c1CCCC2`: the figures for the IC50 in experiment [1] and in experiment [2] were 1.8 µM and above 10 µM, respectively.

For `CCOC(=O)c1c(NC(=S)Nc2cccc(OC)c2)sc2c1C(C)CCC2` (stereo unspecified), the IC50 in experiment [1] was determined as 3 µM; in experiment [2], 8.9 µM.

Consider `CC1CCCc2sc(NC(=S)Nc3ccccc3)c(C(=O)NCc3ccccc3)c21` (stereo unspecified), for which the IC50 was 2.5 µM in experiment [1] and above 30 µM in experiment [2].

In the case of `CCOC(=O)c1c(NC(=S)Nc2ccc(O)cc2)sc2c1C(C)CCC2` (stereo unspecified), the values for the half-maximal inhibitory concentration (IC50) in experiment [1] and in experiment [2] were above 30 µM and 11.7 µM, respectively.

As for `CC1CCCc2sc(NC(=S)Nc3ccc(OC(F)(F)F)cc3)c(C(=O)OC(C)(C)C)c21` (stereo unspecified), the half-inhibitory concentration (IC50) in experiment [1] is 10.6 µM; in experiment [2], above 10 µM.

For the compound `CCOC(=O)c1c(NC(=S)Nc2ccc(N(C)C)cc2)sc2c1C(C)CCC2` (stereo unspecified), the figures for the half-maximal inhibitory concentration (IC50) in experiment [1] and in experiment [2] were 3.9 µM and above 10 µM, respectively.

On to `O=C(Nc1ccccc1)c1c(NC(=S)Nc2ccc(F)cc2)sc2c1CCOC2`, for which the IC50 in experiment [1] and in experiment [2] was above 10 µM each time.

For the compound `CC(C)(C)OC(=O)c1c(NC(=S)Nc2ccc(OC(F)(F)F)cc2)sc2c1CCOC2`, the IC50 in experiment [1] is 1.6 µM; in experiment [2] it was above 30 µM.

For `CCOC(=O)c1c(NC(=S)Nc2ccc(OC)c(OC)c2)sc2c1C(C)CCC2` (stereo unspecified), the half-maximal inhibitory concentration (IC50) is 7.7 µM in experiment [1] and above 10 µM in experiment [2].

In the case of `CCOC(=O)c1c(NC(=S)NC(=O)c2ccccc2)sc2c1C(C)CCC2` (stereo unspecified), the IC50 in experiment [1] and in experiment [2] was above 10 µM in each case.

For the compound `CCOC(=O)c1c(NC(=S)Nc2ccccc2F)sc2c1C(C)CCC2` (stereo unspecified), the results for the half-maximal inhibitory concentration (IC50) in experiment [1] and in experiment [2] were 7.5 µM and 12 µM, respectively.

`CC1CCCc2sc(NC(=S)Nc3ccccc3)c(C(N)=O)c21` (stereo unspecified): the results for the IC50 in experiment [1] and in experiment [2] were above 30 µM and above 10 µM, respectively.

In the case of `CC1CCCc2sc(NC(=S)Nc3ccc(Oc4ccccc4)cc3)c(C(=O)OC(C)(C)C)c21` (stereo unspecified), the 50% inhibitory concentration (IC50) in experiment [1] and in experiment [2] was above 10 µM throughout.

These data come from ChEMBL document CHEMBL4765436, “Discovery, structure-activity relationship study and biological evaluation of 2-thioureidothiophene-3-carboxylates as a novel class of C-X-C chemokine receptor 2 (CXCR2) antagonists” (Eur J Med Chem, 2020).
